# Results published in patent US20040096356A1, “Assay device for determining analytes in a liquid dairy product” (priority 1997, published 2004).
# Target: T1, enzyme R39 (soluble exocellular D-alanyl-D-alanine carboxypeptidase produced by Actinomadura R39) (Actinomadura sp., UniProt P39045)
# T1 construct: soluble exocellular D-alanyl-D-alanine carboxypeptidase produced by Actinomadura R39, obtained by the procedure described in J.-M. Frere et al; made in house; host or cells: Actinomadura R39 (natural producer, secreted enzyme)
# T1 sequence (P39045 50-515): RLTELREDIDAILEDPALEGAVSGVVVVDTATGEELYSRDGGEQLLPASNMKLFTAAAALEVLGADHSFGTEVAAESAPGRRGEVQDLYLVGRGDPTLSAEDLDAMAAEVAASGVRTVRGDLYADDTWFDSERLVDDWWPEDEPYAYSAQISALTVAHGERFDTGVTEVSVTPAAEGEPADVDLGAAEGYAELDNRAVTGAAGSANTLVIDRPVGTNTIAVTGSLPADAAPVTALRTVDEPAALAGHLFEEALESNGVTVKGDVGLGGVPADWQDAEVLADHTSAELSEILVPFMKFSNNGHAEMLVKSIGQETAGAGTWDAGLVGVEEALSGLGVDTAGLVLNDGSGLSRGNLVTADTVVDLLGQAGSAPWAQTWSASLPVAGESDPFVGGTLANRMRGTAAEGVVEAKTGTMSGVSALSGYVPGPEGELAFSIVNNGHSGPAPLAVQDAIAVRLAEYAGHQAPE
# Assay: Test 2, sensitive test (7 minutes): strip test for β-lactam antibiotics in milk using enzyme R39
# Type: binding
# Conditions: for Intensity 1st band: scale 0 to 10, reference band 6, 47° C., 5 min incubation + 2 min migration
# Method: The identifier used in this example is soluble exocellular D-alanyl-D-alanine carboxypeptidase produced by Actinomadura R39, obtained by the procedure described in J.-M. Frere et al., Antimicrobial Agents and Chemotherapy, 18(4), 506-510 (1980).
# 250 μl of an aqueous solution of enzyme R39 having a concentration of 1 mg/ml are dialysed for 24 hours against 500 ml of HNM buffer (Hepes 10 mM, pH 8, NaCl 10 mM, MgCl2 5 mM). To this dialysed solution of enzyme R39 are then added 2 ml of bicarbonate buffer (0.1 M sodium bicarbonate, pH 9) and 250 μl of a solution of N-hydroxysuccinimide 6-(biotinamido)caproic ester having a concentration of 5 mg/ml in anhydrous DMF. This solution is stirred gently in the LABINCO stirrer for tubes on a rotary axis (available from VEL, Belgium) at a rate of 2 revolutions/minute for 3 hours at room temperature and away from light. The solution thus obtained is dialysed against the HNM buffer ([…]) for 24 hours. In this way a solution of biotinylated enzyme R39 is obtained which is diluted in HNM-BSA buffer (Hepes 500 mM; pH 8, NaCl 500 mM, MgCl2 250 mM, BSA 10 mg/ml) to a concentration of 100 μg of enzyme R39 per ml of buffer. This solution is stored at −20° C.
# As the marker use is made of particles of gold having a diameter of 40 nm on which a goat anti-biotin antibody has been deposited in the form of suspensions in a 2 mM aqueous sodium tetraborate solution, with a pH of 7.2, stabilized by 0.1% of sodium azide (available from British Biocell (Ref. GAB40)). The optical density of these suspensions at 520 nm is approximately 10 and the protein concentration is approximately 24 μg/ml.
# The biotinylated enzyme R39 solution prepared in Example 2.2.1 is diluted 50 times with the HNM-BSA buffer (Hepes 500 mM, pH 8, NaCl 500 mM, MgCl2 250 mM, BSA 10 mg/ml). At room temperature, 17.5 parts by volume of this dilute biotinylated enzyme R39 solution, 9.27 parts by volume of the gold particle suspension used to label the enzyme R39 and 6 parts by volume of reference gold particle suspension are mixed (see Example 2.3).
# The first capture substance makes it possible to fix the identifiers coupled with the free markers present in excess relative to the quantity of antibiotic present in the sample.
# Assay devices containing membranes (2), (3) and (4) are used, assembled in accordance with the procedure described in Example 1.1. The membrane (3) of these devices carries on the proximal side the capture substance described in Example 2.4.1. and on the distal side the capture substance described in Example 2.4.2. The capture substances were deposited in accordance with the procedure described in Example 1.2.
# Six samples of milk are prepared, containing 0; 2; 2.5; 3; 4 and 5 ppb, respectively, of penicillin G. Each of these solutions is then analysed as follows.
# An aliquot is taken of 200 μl of milk sample and 32.8 μl of solution B prepared in Example 2.2.3, and is placed in an Eppendorf tube. This mixture is incubated at 47° C. for 5 minutes. An assay device is then placed vertically in the Eppendorf tube such that the first end of the assay device is in contact with the mixture. The mixture is allowed to migrate over the assay device while the assembly is incubated at 47° C. for 2 minutes.
# An intensity value ranging from 0 to 10 is awarded to the bands detected, the value 10 being given to the most intense band and the value 0 being given to the least intense band. On this scale, a value 6 is awarded to the reference band. The intensity of the signal observed in the first detection band is inversely proportional to the quantity of penicillin G present in the sample.
# In this example, the test is considered to be positive when the first band has an intensity which is lower than that of the reference band. The results shown in Table 2 indicate that this test makes it possible to detect in 7 minutes down to 2.5 ppb of penicillin G in a milk sample.
structure (smiles),measurement,setting,value
"CC1(C)S[C@@H]2[C@H](NC(=O)Cc3ccccc3)C(=O)N2[C@H]1C(=O)O [Penicillin G, penicillin G]",Intensity 1st band,2 ppb penicillin G in milk,7
same,Intensity 1st band,2.5 ppb penicillin G in milk,5
same,Intensity 1st band,3 ppb penicillin G in milk,4
same,Intensity 1st band,4 ppb penicillin G in milk,1
same,Intensity 1st band,5 ppb penicillin G in milk,0
same,lowest concentration detected in a milk sample,"in 7 minutes, positive when first band is less intense than reference band",2.5 ppb
